{
  "source": "ChEMBL document CHEMBL1201862",
  "about": "“PubChem BioAssay data set” (2004)",
  "key": {"X-box-binding protein 1": {"molecular_target": "T1, X-box-binding protein 1 (Homo sapiens, UniProt P17861)", "T1 sequence (P17861 whole entry)": "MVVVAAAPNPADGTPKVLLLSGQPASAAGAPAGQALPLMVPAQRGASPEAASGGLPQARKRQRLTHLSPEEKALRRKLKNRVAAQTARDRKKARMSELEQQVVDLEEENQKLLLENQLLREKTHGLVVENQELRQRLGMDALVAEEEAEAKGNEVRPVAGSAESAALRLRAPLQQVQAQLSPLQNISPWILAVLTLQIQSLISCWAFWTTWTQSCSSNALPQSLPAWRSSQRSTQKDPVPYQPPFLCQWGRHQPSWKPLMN", "type": "functional, Cricetulus griseus"}, "[1]": {"molecular_target": "T2, Heat shock factor protein 1 (Mus musculus, UniProt P38532)", "T2 sequence (P38532 whole entry)": "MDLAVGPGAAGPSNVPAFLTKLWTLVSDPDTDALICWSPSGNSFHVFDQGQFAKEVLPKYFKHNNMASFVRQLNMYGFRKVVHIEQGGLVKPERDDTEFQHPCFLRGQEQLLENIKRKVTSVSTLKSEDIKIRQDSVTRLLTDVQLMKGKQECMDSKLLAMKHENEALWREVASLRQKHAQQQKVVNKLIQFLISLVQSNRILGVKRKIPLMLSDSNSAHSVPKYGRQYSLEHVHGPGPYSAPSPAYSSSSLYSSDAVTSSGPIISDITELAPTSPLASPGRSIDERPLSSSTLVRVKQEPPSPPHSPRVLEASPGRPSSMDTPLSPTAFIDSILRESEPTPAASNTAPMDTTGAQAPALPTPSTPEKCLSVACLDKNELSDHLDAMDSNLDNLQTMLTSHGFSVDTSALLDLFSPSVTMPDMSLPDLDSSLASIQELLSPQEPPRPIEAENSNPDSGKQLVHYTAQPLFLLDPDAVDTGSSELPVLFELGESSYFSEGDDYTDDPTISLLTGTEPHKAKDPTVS", "assay": "decrease of HSF1-responsive luciferase luminescence – cell-based, NIH3T3, dose retest, confirmation (AID 2382);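 also: NIH3T3 fibroblasts with HSF1-driven luciferase reporter stressed by proteasome inhibitor MG132; luminescence from HSF1-driven luciferase expression after 8 hours of MG132 stress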", "type": "functional"}, "HEK293 [2]": {"system": "HEK293", "assay": "EBV LMP1 TES2 canonical NF-kB signalling blockers – cell-based, HEK293, luciferase, cherry-pick, dose response (AID 588343)", "type": "functional", "conditions": "Homo sapiens"}, "[3]": {"molecular_target": "G-protein coupled receptor 55 (Homo sapiens, UniProt Q9Y2T6)", "sequence (Q9Y2T6 whole entry)": "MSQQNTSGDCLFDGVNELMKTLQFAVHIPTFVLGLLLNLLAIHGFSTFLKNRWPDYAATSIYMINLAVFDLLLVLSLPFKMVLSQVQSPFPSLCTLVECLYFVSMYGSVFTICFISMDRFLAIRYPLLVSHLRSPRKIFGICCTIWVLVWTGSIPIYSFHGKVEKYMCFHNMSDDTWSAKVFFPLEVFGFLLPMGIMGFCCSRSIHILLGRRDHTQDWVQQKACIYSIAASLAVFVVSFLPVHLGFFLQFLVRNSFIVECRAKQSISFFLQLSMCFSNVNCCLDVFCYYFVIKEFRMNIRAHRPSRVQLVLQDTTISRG", "assay": "selective activators of receptor GPR55 – imaging, U2OS cells, beta-arrestin-GFP redistribution, primary screen (AID 1961)", "type": "functional"}, "[4]": {"assay": "IC50 of Artemis nuclease activity blockers – biochemical, fluorescence intensity, dose response (AID 720701);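 also: Artemis endonuclease enzyme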", "type": "functional"}, "Bcl-2-like protein 10": {"molecular_target": "T3, Bcl-2-like protein 10 (Homo sapiens, UniProt Q9HD36)", "T3 sequence (Q9HD36 whole entry)": "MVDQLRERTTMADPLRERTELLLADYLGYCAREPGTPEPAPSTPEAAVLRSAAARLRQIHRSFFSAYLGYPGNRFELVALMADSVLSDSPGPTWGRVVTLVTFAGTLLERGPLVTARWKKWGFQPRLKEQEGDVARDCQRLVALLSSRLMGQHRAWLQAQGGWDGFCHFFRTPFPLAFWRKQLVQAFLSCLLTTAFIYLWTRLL", "assay": "Bcl-B/TR3 peptide binding disruption – biochemical, fluorescence polarization, FITC-TR3 peptide, selectivity assay for Bfl-1 inhibitor project, primary screen (AID 748);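 also: fluorescence polarization from a fluorescein-labelled TR3 peptide binding purified Bcl-B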"}, "[5]": {"molecular_target": "Protein-tyrosine kinase 2-beta (Homo sapiens, UniProt Q14289)", "sequence (Q14289 whole entry)": "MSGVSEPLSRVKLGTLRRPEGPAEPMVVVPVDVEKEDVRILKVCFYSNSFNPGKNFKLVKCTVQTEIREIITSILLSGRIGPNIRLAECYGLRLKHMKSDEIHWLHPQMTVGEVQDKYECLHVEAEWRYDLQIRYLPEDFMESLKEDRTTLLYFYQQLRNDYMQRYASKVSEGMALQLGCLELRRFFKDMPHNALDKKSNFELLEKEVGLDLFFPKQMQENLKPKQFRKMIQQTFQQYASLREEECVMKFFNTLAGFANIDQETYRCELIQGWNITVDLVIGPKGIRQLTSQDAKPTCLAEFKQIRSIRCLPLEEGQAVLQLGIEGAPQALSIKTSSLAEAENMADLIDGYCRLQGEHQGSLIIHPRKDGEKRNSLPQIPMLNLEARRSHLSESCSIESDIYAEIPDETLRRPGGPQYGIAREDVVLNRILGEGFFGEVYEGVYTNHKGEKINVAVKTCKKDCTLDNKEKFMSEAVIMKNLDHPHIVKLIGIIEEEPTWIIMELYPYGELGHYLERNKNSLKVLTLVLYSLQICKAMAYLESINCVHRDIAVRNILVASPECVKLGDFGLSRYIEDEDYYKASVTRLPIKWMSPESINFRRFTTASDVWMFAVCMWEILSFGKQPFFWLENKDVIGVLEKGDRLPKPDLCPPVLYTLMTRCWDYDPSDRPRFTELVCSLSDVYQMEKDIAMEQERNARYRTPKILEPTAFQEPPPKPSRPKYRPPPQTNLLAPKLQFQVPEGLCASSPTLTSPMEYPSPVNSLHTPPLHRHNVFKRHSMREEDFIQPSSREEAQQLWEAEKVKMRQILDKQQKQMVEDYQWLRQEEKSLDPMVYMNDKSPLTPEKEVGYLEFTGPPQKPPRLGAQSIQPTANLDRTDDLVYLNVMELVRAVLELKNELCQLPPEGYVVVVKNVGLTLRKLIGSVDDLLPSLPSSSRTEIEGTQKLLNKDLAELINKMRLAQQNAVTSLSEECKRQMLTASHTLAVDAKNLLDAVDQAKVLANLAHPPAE"}, "Estrogen receptor": {"molecular_target": "T4, Estrogen receptor (Homo sapiens, UniProt P03372)", "T4 sequence (P03372 whole entry)": "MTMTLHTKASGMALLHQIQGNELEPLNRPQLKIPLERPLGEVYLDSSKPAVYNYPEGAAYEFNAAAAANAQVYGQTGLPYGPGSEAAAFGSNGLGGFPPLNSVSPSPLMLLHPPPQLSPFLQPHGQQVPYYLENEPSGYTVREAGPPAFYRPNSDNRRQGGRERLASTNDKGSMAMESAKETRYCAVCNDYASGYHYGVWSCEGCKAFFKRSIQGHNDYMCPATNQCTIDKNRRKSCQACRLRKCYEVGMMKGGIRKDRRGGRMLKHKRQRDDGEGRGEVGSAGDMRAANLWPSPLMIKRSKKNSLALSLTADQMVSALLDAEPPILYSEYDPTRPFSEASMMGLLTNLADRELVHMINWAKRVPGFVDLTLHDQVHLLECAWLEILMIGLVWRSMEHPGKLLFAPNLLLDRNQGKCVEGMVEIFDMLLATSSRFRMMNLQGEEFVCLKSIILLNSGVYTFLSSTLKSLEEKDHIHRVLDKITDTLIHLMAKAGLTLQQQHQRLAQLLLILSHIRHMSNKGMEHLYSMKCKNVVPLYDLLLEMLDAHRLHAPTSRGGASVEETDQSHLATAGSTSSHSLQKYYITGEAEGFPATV"}, "Estrogen receptor beta [6]": {"molecular_target": "T5, Estrogen receptor beta (Homo sapiens, UniProt Q92731)", "T5 sequence (Q92731 whole entry)": "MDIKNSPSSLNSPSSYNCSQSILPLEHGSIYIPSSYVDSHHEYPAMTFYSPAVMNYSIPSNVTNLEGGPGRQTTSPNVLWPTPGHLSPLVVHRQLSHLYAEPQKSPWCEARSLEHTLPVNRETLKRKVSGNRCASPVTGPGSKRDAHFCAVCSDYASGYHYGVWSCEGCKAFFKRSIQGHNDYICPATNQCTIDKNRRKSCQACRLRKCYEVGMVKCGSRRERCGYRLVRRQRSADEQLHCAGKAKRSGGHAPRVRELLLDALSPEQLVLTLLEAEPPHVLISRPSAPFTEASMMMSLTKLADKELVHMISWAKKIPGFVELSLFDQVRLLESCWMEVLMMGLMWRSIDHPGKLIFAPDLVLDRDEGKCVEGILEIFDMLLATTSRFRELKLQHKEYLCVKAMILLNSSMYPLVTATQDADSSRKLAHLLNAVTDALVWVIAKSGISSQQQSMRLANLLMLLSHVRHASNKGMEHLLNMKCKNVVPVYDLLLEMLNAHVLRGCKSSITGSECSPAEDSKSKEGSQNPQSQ", "assay": "blockers of SRC-3 recruitment to ERβ – biochemical, ELISA, streptavidin-HRP readout, orthogonal assay, confirmation (AID 1060)"}, "Estrogen receptor beta [7]": {"molecular_target": "T5, Estrogen receptor beta"}, "HEK293 [8]": {"system": "HEK293", "assay": "cells", "conditions": "Homo sapiens"}, "Tumor necrosis factor": {"molecular_target": "Tumor necrosis factor (Homo sapiens, UniProt P01375)", "sequence (P01375 whole entry)": "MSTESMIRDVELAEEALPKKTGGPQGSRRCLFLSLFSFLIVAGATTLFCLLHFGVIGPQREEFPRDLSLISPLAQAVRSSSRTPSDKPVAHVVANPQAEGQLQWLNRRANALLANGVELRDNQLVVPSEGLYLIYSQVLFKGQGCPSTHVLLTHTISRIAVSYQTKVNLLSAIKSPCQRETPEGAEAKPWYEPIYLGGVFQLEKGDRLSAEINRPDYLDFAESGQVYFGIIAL", "assay": "analog potency on TNFa NF-kB signaling – cell-based, revised, SAR follow-up (AID 2337)", "type": "functional"}, "[9]": {"molecular_target": "T6, Nucleotide-binding oligomerization domain-containing protein 1 (Homo sapiens, UniProt Q9Y239)", "T6 sequence (Q9Y239 whole entry)": "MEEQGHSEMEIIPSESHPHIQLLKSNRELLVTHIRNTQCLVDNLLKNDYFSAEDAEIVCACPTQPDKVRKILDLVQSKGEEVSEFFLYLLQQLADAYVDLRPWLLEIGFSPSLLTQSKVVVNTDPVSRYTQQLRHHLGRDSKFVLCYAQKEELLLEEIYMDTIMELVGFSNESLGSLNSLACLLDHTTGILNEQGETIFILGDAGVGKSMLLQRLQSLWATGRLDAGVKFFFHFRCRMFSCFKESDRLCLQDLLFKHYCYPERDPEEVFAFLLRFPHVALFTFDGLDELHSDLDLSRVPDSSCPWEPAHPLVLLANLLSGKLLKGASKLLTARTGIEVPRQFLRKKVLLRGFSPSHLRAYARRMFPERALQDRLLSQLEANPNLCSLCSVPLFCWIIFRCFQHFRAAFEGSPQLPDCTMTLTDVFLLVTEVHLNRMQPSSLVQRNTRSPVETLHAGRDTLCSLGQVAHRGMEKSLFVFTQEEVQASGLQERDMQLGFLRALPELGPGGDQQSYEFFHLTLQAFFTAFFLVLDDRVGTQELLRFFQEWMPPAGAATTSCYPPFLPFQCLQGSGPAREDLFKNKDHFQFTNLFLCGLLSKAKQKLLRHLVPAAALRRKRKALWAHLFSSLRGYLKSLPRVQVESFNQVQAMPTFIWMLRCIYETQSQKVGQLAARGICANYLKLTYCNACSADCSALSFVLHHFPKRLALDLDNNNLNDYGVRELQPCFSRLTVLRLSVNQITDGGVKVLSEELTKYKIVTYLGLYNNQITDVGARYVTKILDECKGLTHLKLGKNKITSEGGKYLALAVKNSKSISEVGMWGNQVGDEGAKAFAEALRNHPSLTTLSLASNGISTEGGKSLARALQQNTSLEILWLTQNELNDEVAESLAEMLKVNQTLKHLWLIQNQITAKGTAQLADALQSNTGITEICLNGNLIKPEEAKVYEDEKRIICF", "assay": "blockers of NOD1 pathway activity – revised, SAR follow-up (AID 2333)", "type": "functional"}, "[10]": {"molecular_target": "Nucleotide-binding oligomerization domain-containing protein 2 (Homo sapiens, UniProt Q9HC29)", "sequence (Q9HC29 whole entry, the tested form may be a part)": "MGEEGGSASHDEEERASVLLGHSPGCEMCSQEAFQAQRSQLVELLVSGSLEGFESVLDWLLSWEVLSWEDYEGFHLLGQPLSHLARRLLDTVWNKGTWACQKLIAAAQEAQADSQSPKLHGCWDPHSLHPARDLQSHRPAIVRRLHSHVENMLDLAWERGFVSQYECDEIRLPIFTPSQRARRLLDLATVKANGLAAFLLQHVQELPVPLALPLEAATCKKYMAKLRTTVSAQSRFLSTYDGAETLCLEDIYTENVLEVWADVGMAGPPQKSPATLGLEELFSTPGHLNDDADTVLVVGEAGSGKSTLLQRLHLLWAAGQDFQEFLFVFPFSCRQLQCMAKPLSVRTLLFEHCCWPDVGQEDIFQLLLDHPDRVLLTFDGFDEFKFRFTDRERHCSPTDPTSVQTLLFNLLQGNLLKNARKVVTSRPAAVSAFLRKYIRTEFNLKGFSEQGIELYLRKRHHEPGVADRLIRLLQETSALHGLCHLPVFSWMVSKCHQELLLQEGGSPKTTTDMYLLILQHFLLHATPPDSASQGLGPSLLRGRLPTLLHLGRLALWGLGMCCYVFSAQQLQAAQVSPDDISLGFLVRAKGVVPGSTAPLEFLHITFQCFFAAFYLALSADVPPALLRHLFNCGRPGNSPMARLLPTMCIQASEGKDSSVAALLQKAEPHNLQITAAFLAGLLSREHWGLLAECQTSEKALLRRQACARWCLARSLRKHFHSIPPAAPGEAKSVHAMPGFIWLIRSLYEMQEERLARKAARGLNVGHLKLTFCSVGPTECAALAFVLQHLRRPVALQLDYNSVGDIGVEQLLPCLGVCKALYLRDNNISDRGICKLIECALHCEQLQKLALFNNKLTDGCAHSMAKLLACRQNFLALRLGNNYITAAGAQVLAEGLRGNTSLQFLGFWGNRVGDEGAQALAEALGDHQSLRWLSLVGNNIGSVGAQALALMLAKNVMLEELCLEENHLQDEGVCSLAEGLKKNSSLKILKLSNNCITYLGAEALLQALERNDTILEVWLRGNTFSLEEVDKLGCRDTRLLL", "assay": "PubChem AID 2334", "type": "functional"}},
  "note": "Calls of active or inactive are those of the source.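 For Absolute IC50 (XBP1) in this document: confirmatory dose-response counter-screen serving a CHOP assay.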",
  "data": [
    {"smiles": "COc1ccc(CCNC(=O)c2nnn(-c3ccc4c(c3)OCCO4)c2N)cc1OC", "values": [
      {"measurement": "Absolute IC50 (XBP1)", "setting": "X-box-binding protein 1", "result": 10, "unit": "µM"},
      {"measurement": "EC50", "setting": "[1]", "result": "0.44 µM (active)"},
      {"measurement": "AC50", "setting": "HEK293 [2]", "result": "0.786 µM (active)"}
    ]},
    {"smiles": "CC(=O)OC(c1nc2ccccc2c(=O)n1C1CC2(OC1=O)c1ccccc1N1C(=O)C(C)(C)N(O)C12)C(C)C", "note": "(stereo unspecified)", "values": [
      {"measurement": "EC50", "setting": "[3]", "result": "7.35 µM (active)"}
    ]},
    {"smiles": "O=C(Nc1ccc(N2CCCC2)cc1)C(c1ccccc1)c1ccccc1", "values": [
      {"measurement": "IC50", "setting": "[4]", "result": "> 20 µM (inactive)"},
      {"measurement": "IC50", "setting": "Bcl-2-like protein 10", "result": "18.9 µM (active)"},
      {"measurement": "IC50", "setting": "[5]", "result": "11.6 µM (not active)"},
      {"measurement": "IC50", "setting": "Estrogen receptor", "result": "7.09 µM (active)"}
    ]},
    {"smiles": "O=C(COC(=O)CN1C(=O)c2ccccc2C1=O)Nc1ncc(Cl)cc1Cl", "values": [
      {"measurement": "IC50", "setting": "Bcl-2-like protein 10", "result": "41.5 µM (active)"},
      {"measurement": "IC50", "setting": "Estrogen receptor beta [6]", "result": "< 77 µM (not active)"},
      {"measurement": "IC50", "setting": "Estrogen receptor beta [7]", "result": "11.1 µM (active)"}
    ]},
    {"smiles": "CN1/C(=C\\C(=O)COC(=O)c2ccco2)C(C)(C)c2ccccc21", "values": [
      {"measurement": "EC50", "setting": "[3]", "result": "5.59 µM (active)"}
    ]},
    {"smiles": "Cc1cccn2c(=O)c3cc(C(=O)NCC4CCCO4)c(=N)n(Cc4cccnc4)c3nc12", "note": "(stereo unspecified)", "values": [
      {"measurement": "IC50", "setting": "Bcl-2-like protein 10", "result": "> 25 µM (inactive)"}
    ]},
    {"smiles": "Cc1ccccc1C(=O)Nc1nc2ccccc2n1Cc1ccc(Cl)cc1", "values": [
      {"measurement": "IC50", "setting": "HEK293 [8]", "result": "> 20 µM (inactive)"},
      {"measurement": "IC50", "setting": "Tumor necrosis factor", "result": "> 20 µM (inactive)"},
      {"measurement": "IC50", "setting": "[9]", "result": "> 20 µM (inactive)"},
      {"measurement": "IC50", "setting": "[10]", "result": "> 20 µM (inactive)"}
    ]},
    {"smiles": "O=C(Nc1ccc(Cl)c(Cl)c1)c1ccc(CN2CCc3ccccc3C2)cc1", "values": [
      {"measurement": "IC50", "setting": "HEK293 [8]", "result": "8.89 µM (active)"},
      {"measurement": "IC50", "setting": "Tumor necrosis factor", "result": "> 20 µM (inactive)"},
      {"measurement": "IC50", "setting": "[9]", "result": "0.891 µM (active)"},
      {"measurement": "IC50", "setting": "[10]", "result": "> 20 µM (inactive)"}
    ]},
    {"smiles": "O=C(C1CC1)N1CCc2cc(S(=O)(=O)N3CCN(c4ccc([N+](=O)[O-])cc4)CC3)ccc21", "values": [
      {"measurement": "IC50", "setting": "HEK293 [8]", "result": "> 20 µM (inactive)"},
      {"measurement": "IC50", "setting": "Tumor necrosis factor", "result": "12.4 µM (active)"},
      {"measurement": "IC50", "setting": "[9]", "result": "6.5 µM (active)"},
      {"measurement": "IC50", "setting": "[10]", "result": "8.44 µM (active)"}
    ]},
    {"smiles": "Cc1ccc(/C=N/NC(=O)CSCc2ccc(Cl)cc2)cc1", "values": [
      {"measurement": "Absolute IC50 (XBP1)", "setting": "X-box-binding protein 1", "result": 10, "unit": "µM"}
    ]}
  ]
}
